Test results as given in US20080234229A1, “Novel Therapeutic Agents for the Treatment of Cancer, Metabolic Diseases and Skin Disorders” (AUSPEX PHARMACEUTICALS, INC., priority 2005, published 2008).

How the values were obtained:
A375 cells = assay: A375 Tumor Cell Proliferation Assay (Alamar Blue); type: cell-based, human; conditions: for TGI (Total Growth Inhibition) / IC50: A375 cells, 72 to 168 hours, reference data; for IC50: A-375, read-out: IC50 (50% Inhibitory Concentration); for growth inhibitory effect compared to Targretin: FIG. 1
Procedure: A375 cells (5,000 per well in 90% RPMI-1640 plus 10% Fetal Bovine Serum [FBS]) were pre-incubated in a black clear bottom 96-well plate in an atmosphere of 5% CO2 at 37° C. for 24 hours. Stock solutions of compounds in DMSO were diluted using a buffer and dilutions were added to each well. […] The final assay pH was 7.4. The cells were incubated in RPMI-1640 with each compound for an additional 72 to 168 hours. Alamar Blue was added and the plate was incubated for an additional 12 hours. Fluorescence intensity was measured using a Gemini plate reader with excitation at 530 nm and emission at 590 nm. A decrease of 50 percent or more (≧50%) in fluorescence intensity relative to vehicle treated controls is an indication of significant anti-cancer activity.
TGI (Total Growth Inhibition): Test compound concentration where the increase in number or mass of cells after 72 to 168 hours is reduced to equal that at time t=0.

SW-480 cells = assay: SW-480 Tumor Cell Proliferation Assay (Alamar Blue); type: cell-based; conditions: human SW480 carcinoma cells; for growth inhibitory effect compared to Targretin: FIG. 3; for growth inhibitory effect in the presence of Irinotican: varying concentrations, combination with Irinotican, FIG. 6 and 7
Procedure: SW-480 cells (4×10^3/well in 90% EMEM medium plus 2 mM glutamine, 1 mM pyruvate, 0.1 mM non-essential amino acids and 10% Fetal Bovine Serum [FBS]), are pre-incubated in 96-well plates in an atmosphere of 5% CO2 at 37° C. for 24 hours. Test compounds and/or vehicle is then added to each well with a final concentration of 0.5% DMSO, pH 7.4 in EMEM for an additional 72 hours. After a further 6-hour incubation in the presence of Alamar Blue, fluorescence intensity is measured using a Gemini plate reader with excitation at 530 nm and emission at 590 nm.

SKMES cells = assay: SKMES Tumor Cell Proliferation Assay (Alamar Blue); type: cell-based; conditions: human SKMES carcinoma cells; for growth inhibitory effect compared to Targretin: FIG. 2
Procedure: SKMES cells (8×10^3/well in 90% RPMI-1640 medium plus 2 mM glutamine, 10 mM HEPES and 10% Fetal Bovine Serum [FBS]), are pre-incubated in 96-well plates in an atmosphere of 5% CO2 at 37° C. for 24 hours. Test compounds and/or vehicle is then added to each well with a final concentration of 0.5% DMSO, pH 7.4 in RPMI-1640 for an additional 72 hours. After a further 150 minutes incubation in the presence of Alamar Blue, fluorescence intensity is measured using a Gemini plate reader with excitation at 530 nm and emission at […].

Structure (SMILES)	TGI (Total Growth Inhibition) (A375 cells) [µM]	IC50 (A375 cells; Homo sapiens) [µM]	CC50 (A375 cells; Homo sapiens, A-375, read-out: LC50 (50% Lethal Concentration)) [µM]	growth inhibitory effect compared to Targretin (A375 cells; human A375 carcinoma cells)	growth inhibitory effect compared to Targretin (SW-480 cells)	growth inhibitory effect in the presence of Irinotican (SW-480 cells)	growth inhibitory effect compared to Targretin (SKMES cells)	growth inhibitory effect in the presence of Taxol (A375 cells; human A375 carcinoma cells, varying concentrations, combination with Taxol, FIG. 5)	growth inhibitory effect in the presence of Taxol (SKMES cells; varying concentrations, combination with Taxol, FIG. 4)
COc1cccc2c1C(=O)c1c(O)c3c(c(O)c1C2=O)C[C@@](O)(C(=O)CO)C[C@@H]3O[C@H]1C[C@H](N)[C@H](O)[C@H](C)O1 [Doxorubicin]	0.3	0.19	8						
C=C(c1ccc(B2OC(C)(C)C(C)(C)O2)cc1)c1cc2c(cc1C)C(C)(C)CCC2(C)C [Example 4, 4,4,5,5-Tetramethyl-2-{4-[1-(3,5,5,8,8-pentamethyl-5,6,7,8-tetrahydro-naphthalen-2-yl)-vinyl]-phenyl}-[1,3,2]dioxaborolane]				enhanced activity	enhanced activity	synergism	enhanced activity		
C=C(c1ccc(B(O)O)cc1)c1cc2c(cc1C)C(C)(C)CCC2(C)C [Example 5, 4-[1-(3,5,5,8,8-Pentamethyl-5,6,7,8-tetrahydro-naphthalen-2-yl)-vinyl]-phenylboronic acid]				enhanced activity	enhanced activity	synergism	enhanced activity	synergism	synergism
CO[C@@]12[C@H](COC(N)=O)C3=C(C(=O)C(C)=C(N)C3=O)N1C[C@@H]1N[C@@H]12 [Mitomycin]	8	4.2							
